Molecular target: T1, Prostaglandin D2 receptor 2 (Homo sapiens, UniProt Q9Y5Y4)
T1 sequence (Q9Y5Y4 whole entry): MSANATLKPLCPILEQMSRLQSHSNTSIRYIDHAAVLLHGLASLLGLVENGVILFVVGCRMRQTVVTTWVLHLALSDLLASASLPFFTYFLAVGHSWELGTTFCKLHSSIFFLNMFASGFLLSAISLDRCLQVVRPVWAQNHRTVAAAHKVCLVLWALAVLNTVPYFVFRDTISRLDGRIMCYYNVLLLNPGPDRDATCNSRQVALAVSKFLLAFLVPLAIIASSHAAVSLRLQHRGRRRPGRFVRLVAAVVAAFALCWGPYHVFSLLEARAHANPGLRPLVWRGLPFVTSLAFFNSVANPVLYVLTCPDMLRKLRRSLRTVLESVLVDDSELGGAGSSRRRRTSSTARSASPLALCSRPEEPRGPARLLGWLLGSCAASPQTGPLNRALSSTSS
Assay: Radioligand Binding Assay and [35S] GTP-gamma-S Binding Assay
Details: not given
Experimental: (§1) A scintillation proximity assay was used for radioligand competition and saturation binding assays. Nonspecific binding was determined in the presence of 1 uM PGD2. Binding activity was determined by using a 1450 Microbeta scintillation counter (Wallac, UK). Ki values were calculated by using the Cheng-Prusoff equation, and represent the average of at least three independent dose-response experiments. EC50/IC50 values were obtained from GTP-gamma-S binding assay, which measures antagonist activity of compounds in the presence of 80 nM PGD2.

Ki [nM] | Compound
683 | O=C(O)CN1C(=O)[C@]2(CC(=O)N(Cc3cc(Cl)ccc3F)C2)c2cc(Cl)ccc21 [2-[(3R)-5-chloro-1'-[(5-chloro-2-fluorophenyl)methyl]-1,2-dihydrospiro[indole-3,3'-pyrrolidine]-2,5'-dione]acetic acid]
13 | O=C(O)CN1C(=O)[C@@]2(CC(=O)N(Cc3cc(Cl)ccc3F)C2)c2cc(Cl)ccc21 [2-[(3S)-5-chloro-1'-[(5-chloro-2-fluorophenyl)methyl]-1,2-dihydrospiro[indole-3,3'-pyrrolidine]-2,5'-dione]acetic acid]

Same assay, conditions: pH 7.4; 22 °C

Compound | IC50 [nM]
O=C(O)CN1C(=O)C2(CC(=O)N(Cc3cccc(Cl)c3)C2=O)c2cc(Cl)ccc21 (configuration not stated) [2-{5-chloro-1'-[(3-chlorophenyl)methyl]-1,2-dihydrospiro[indole-3,3'-pyrrolidine]-2,2',5'-trione}acetic acid] | 122
O=C(O)CN1C(=O)C2(CC(=O)N(Cc3ccccc3)C2=O)c2cc(Cl)ccc21 (configuration not stated) [2-{1'-benzyl-5-chloro-1,2-dihydrospiro[indole-3,3'-pyrrolidine]-2,2',5'-trione}acetic acid] | 418

Next, values leading:

IC50 [nM] | Compound
182 | O=C(O)CN1C(=O)C2(CC(=O)N(Cc3ccc(F)cc3)C2=O)c2cc(Cl)ccc21 (configuration not stated) [2-{5-chloro-1'-[(4-fluorophenyl)methyl]-1,2-dihydrospiro[indole-3,3'-pyrrolidine]-2,2',5'-trione}acetic acid]
212 | O=C(O)CN1C(=O)C2(CC(=O)N(Cc3ccccc3F)C2=O)c2cc(Cl)ccc21 (configuration not stated) [2-{5-chloro-1'-[(2-fluorophenyl)methyl]-1,2-dihydrospiro[indole-3,3'-pyrrolidine]-2,2',5'-trione}acetic acid]

Molecular target: T2, Prostaglandin D2 receptor 2 (Mus musculus, UniProt Q9Z2J6)
T2 sequence (Q9Z2J6 whole entry): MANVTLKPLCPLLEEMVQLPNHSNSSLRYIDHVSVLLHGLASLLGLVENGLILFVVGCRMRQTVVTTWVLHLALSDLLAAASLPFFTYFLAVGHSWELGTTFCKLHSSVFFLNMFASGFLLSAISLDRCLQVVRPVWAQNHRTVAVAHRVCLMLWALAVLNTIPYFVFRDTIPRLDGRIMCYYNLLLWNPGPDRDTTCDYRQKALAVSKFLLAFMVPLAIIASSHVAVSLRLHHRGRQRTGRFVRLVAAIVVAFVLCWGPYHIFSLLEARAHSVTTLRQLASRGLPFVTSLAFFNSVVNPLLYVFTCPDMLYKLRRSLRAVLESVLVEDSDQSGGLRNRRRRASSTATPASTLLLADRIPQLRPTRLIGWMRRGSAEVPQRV
Assay: as above
Details: not given
Experimental: as §1

Ki [nM] | Compound
88 | O=C(O)CN1C(=O)[C@@]2(CC(=O)N(Cc3cc(Cl)ccc3F)C2)c2cc(Cl)ccc21 [2-[(3S)-5-chloro-1'-[(5-chloro-2-fluorophenyl)methyl]-1,2-dihydrospiro[indole-3,3'-pyrrolidine]-2,5'-dione]acetic acid]

Molecular target: T1, Prostaglandin D2 receptor 2
Assay: Radioligand Binding Assay
Details: not given

Compound | EC50 [nM]
O=C(O)CN1C(=O)C2(CC(=O)N(Cc3cc(Cl)ccc3F)C2=O)c2cc(Cl)ccc21 (configuration not stated) [2-{5-chloro-1'-[(5-chloro-2-fluorophenyl)methyl]-1,2-dihydrospiro[indole-3,3'-pyrrolidine]-2,2',5'-trione}acetic acid] | 48
Cc1onc(-c2ccccc2)c1CN1C(=O)CC2(C1=O)C(=O)N(CC(=O)O)c1ccc(Cl)cc12 (configuration not stated) [2-{5-chloro-1'-[(5-methyl-3-phenyl-1,2-oxazol-4-yl)methyl]-1,2-dihydrospiro[indole-3,3'-pyrrolidine]-2,2',5'-trione}acetic acid] | 21
O=C(O)CN1C(=O)[C@@]2(CC(=O)N(Cc3cc(Cl)ccc3F)C2=O)c2cc(Cl)ccc21 [2-[(3R)-5-chloro-1'-[(5-chloro-2-fluorophenyl)methyl]-1,2-dihydrospiro[indole-3,3'-pyrrolidine]-2,2',5'-trione]acetic acid] | 66
Cc1noc(-c2ccccc2)c1CN1C(=O)CC2(C1=O)C(=O)N(CC(=O)O)c1ccc(Cl)cc12 (configuration not stated) [2-{5-chloro-1'-[(3-methyl-5-phenyl-1,2-oxazol-4-yl)methyl]-1,2-dihydrospiro[indole-3,3'-pyrrolidine]-2,2',5'-trione}acetic acid] | 23
Cc1noc(-c2ccccc2)c1CN1CC2(CC1=O)C(=O)N(CC(=O)O)c1ccc(Cl)cc12 (configuration not stated) [2-{5-chloro-1'-[(3-methyl-5-phenyl-1,2-oxazol-4-yl)methyl]-1,2-dihydrospiro[indole-3,3'-pyrrolidine]-2,5'-dione}acetic acid] | 19
O=C(O)CN1C(=O)C2(CC(=O)N(Cc3cc(Cl)cc(Cl)c3)C2=O)c2cc(Cl)ccc21 (configuration not stated) [2-{5-chloro-1'-[(3,5-dichlorophenyl)methyl]-1,2-dihydrospiro[indole-3,3'-pyrrolidine]-2,2',5'-trione}acetic acid] | 82

Continued, values first:

EC50 [nM] | Compound
48 | O=C(O)CN1C(=O)C2(CC(=O)N(Cc3csc(-c4cccc(Cl)c4)n3)C2=O)c2cc(Cl)ccc21 (configuration not stated) [2-(5-chloro-1'-{[2-(3-chlorophenyl)-1,3-thiazol-4-yl]methyl}-1,2-dihydrospiro[indole-3,3'-pyrrolidine]-2,2',5'-trione)acetic acid]
107 | O=C(O)CN1C(=O)[C@@]2(CC(=O)N(Cc3cccc(Cl)c3)C2=O)c2cc(Cl)ccc21 [2-[(3R)-5-chloro-1'-[(3-chlorophenyl)methyl]-1,2-dihydrospiro[indole-3,3'-pyrrolidine]-2,2',5'-trione]acetic acid]
220 | Cc1noc(C)c1CN1C(=O)CC2(C1=O)C(=O)N(CC(=O)O)c1ccc(Cl)cc12 (configuration not stated) [2-{5-chloro-1'-[(3,5-dimethyl-1,2-oxazol-4-yl)methyl]-1,2-dihydrospiro[indole-3,3'-pyrrolidine]-2,2',5'-trione}acetic acid]
236 | Cc1nc(CN2C(=O)CC3(C2=O)C(=O)N(CC(=O)O)c2ccc(Cl)cc23)cs1 (configuration not stated) [2-{5-chloro-1'-[(2-methyl-1,3-thiazol-4-yl)methyl]-1,2-dihydrospiro[indole-3,3'-pyrrolidine]-2,2',5'-trione}acetic acid]

Source: BindingDB's records for doi:10.1021/jm701383e (Merck Serono, 2008)
